Test results taken from PubChem BioAssay AID1996.
Values after ≈ are worked out from the molar mass of the structure shown.

details: buffer; pH 7.4; 200.0 µM

Point of comparison: `Cc1ccc(NC(=O)COC(=O)c2cccc(C)c2[N+](=O)[O-])cc1S(=O)(=O)N1CCCCC1`, solubility kinetic 3.8 µg/mL (≈ 7.99 µM). Against it:
- CC(=O)Nc1ccc(OC(=O)N2CCCC2)cc1 — higher, > 37.2 µg/mL
- O=C(CCSc1ccccc1)Nc1ccccc1Br — 1.7-fold higher, 6.6 µg/mL (≈ 19.6 µM)
- O=C(O)C1CCN(C(=O)CCc2ccccc2)CC1 — higher, > 39.2 µg/mL
- CC(=O)c1ccc(C(=O)NC2CCCN(Cc3ccccc3F)C2)cc1 (stereo not given) — higher, > 53.2 µg/mL
- O=C(O)CC1(CC(=O)Nc2ccc3c(c2)OCCCO3)CCCCC1 — 13-fold higher, 50.6 µg/mL (≈ 146 µM)
- O=C(C1CC1)N1c2ccccc2Sc2ccccc21 — 1.9-fold higher, 7.1 µg/mL (≈ 26.6 µM)
- COc1ccccc1C(=O)Nc1cc(-c2ccc(C)cc2)no1 — 7.6-fold lower, 0.5 µg/mL (≈ 1.62 µM)
- O=C(CS(=O)(=O)c1ccccc1)NC1CCCCC1 — higher, > 42.2 µg/mL
- O=C(NCC1CCCO1)c1ccc(COc2ccccc2)cc1 (stereo not given) — higher, > 46.7 µg/mL
- O=C(NCC(O)c1ccc([N+](=O)[O-])cc1)Nc1ccccc1 (stereo not given) — 11-fold higher, 42 µg/mL (≈ 139 µM)
- CCC(=O)c1ccc(OCCn2cnc3ccccc32)cc1.Cl — 12-fold higher, 43.7 µg/mL
- O=C1CSC(c2ccccc2[N+](=O)[O-])N1c1cccc(F)c1 (stereo not given) — 3.4-fold higher, 12.9 µg/mL (≈ 40.5 µM)
- CC(=O)N(Cc1cccs1)Cc1cc2cc(C)c(C)cc2nc1Cl — within 1.5-fold, 4.3 µg/mL (≈ 12 µM)
- NC(=O)C1CC(=O)N(CCc2ccc(F)cc2)C1 (stereo not given) — higher, > 37.5 µg/mL
- O=C(Nc1ccccc1)c1c2c(nc3ccccc13)CCCC2 — 7.6-fold lower, 0.5 µg/mL (≈ 1.65 µM)
- CN(Cc1ccc(F)cc1)Cc1nc(CCc2ccccc2)no1 — 1.5-fold higher, 5.7 µg/mL (≈ 17.5 µM)
- Cc1cccc(C)c1N1CCN(C(=O)N2CCOCC2)CC1 — higher, > 45.5 µg/mL
- CCc1nnc(NC(=O)CN2CCCC(C)C2)s1 (stereo not given) — higher, > 40.3 µg/mL
- O=S(=O)(c1ccccc1)N1CCN(CCc2ccccc2)CC1 — 2.2-fold lower, 1.7 µg/mL (≈ 5.14 µM)
- COc1ccc2[nH]cc(CCNC(=O)CCC3CCCCC3)c2c1 — 7.9-fold higher, 29.9 µg/mL (≈ 91 µM)
- Cc1ccc2c(CC(=O)NCC(C)(C)N3CCOCC3)coc2c1 — higher, > 49.6 µg/mL
- CC(C)C1Cc2[nH]c(=O)c(C#N)cc2CO1 (stereo not given) — higher, > 32.7 µg/mL
- Cc1ccc2c(c1)=C/C(=C\c1c(O)[nH]c(=O)[nH]c1=O)C(=O)N=2 — lower, < 0.2 µg/mL
- CCC(C)Nc1cc(C)c(C#N)c2nc3ccccc3n12 (stereo not given) — within 1.5-fold, 3.7 µg/mL (≈ 13.3 µM)
- COc1ccccc1C(=O)Nc1nc2ccccc2s1 — lower, < 0.3 µg/mL
- O=c1[nH]c(/C=C/c2ccc(Br)cc2)nc2ccccc12 — 4.7-fold lower, 0.8 µg/mL (≈ 2.45 µM)
- CCN1C(=O)/C(=C\c2ccncc2)SC1=S — 1.6-fold higher, 6.2 µg/mL (≈ 24.8 µM)
- Cc1ccccc1-c1nc2cc(NC(=O)C3CC3)ccc2o1 — 4.7-fold lower, 0.8 µg/mL (≈ 2.74 µM)
- O=C(CN1CCN(c2ccccc2)CC1)Nc1ccncc1 — 10-fold higher, 38.6 µg/mL (≈ 130 µM)
- Nc1ccc(Oc2ccc3c(c2)OCO3)cc1 — 7.2-fold higher, 27.3 µg/mL (≈ 119 µM)
- Cc1ccsc1C(=O)NC1CCCCC1C (stereo not given) — higher, > 35.6 µg/mL
- N#CC1(P(=O)(c2ccccc2)c2ccccc2)CCCC1 — higher, > 44.3 µg/mL
- Cc1cccc(NC(=O)CNC(=O)c2cccc(-n3cccc3)c2)c1C — 2.3-fold higher, 8.6 µg/mL (≈ 24.8 µM)
- Nc1c(N(Cc2ccccc2)C(=O)COc2ccc(F)cc2Cl)c(=O)[nH]c(=O)n1Cc1ccccc1 — 2.5-fold higher, 9.4 µg/mL (≈ 18.5 µM)
- O=C(Nc1ccc(F)cc1)c1cc(-c2ccccc2)no1 — lower, < 0.3 µg/mL
- CN(CC(=O)NC(=O)NC1CCCCC1)Cc1ccccc1 — higher, > 45.5 µg/mL
- CCOc1ccc(S(=O)(=O)N(CC)CC)cc1N — higher, > 40.9 µg/mL
- CN(Cc1c(F)cccc1Cl)C(=O)CCc1c[nH]c2ccccc12 — 3.1-fold higher, 11.9 µg/mL (≈ 34.5 µM)
- C=CCNc1nc(N)c([N+](=O)[O-])c(NC2CCCCC2)n1 — 5.4-fold lower, 0.7 µg/mL (≈ 2.39 µM)
- CC(=O)Nc1ccc(NC(=O)C(C)OC(=O)c2ccc(S(=O)(=O)N3CCCCCC3)cc2)cc1 (stereo not given) — 2.5-fold higher, 9.6 µg/mL (≈ 19.7 µM)
- CCOc1ccc(Nc2cc(C)nc3ccc(C)cc23)cc1 — 11-fold higher, 40 µg/mL (≈ 137 µM)
- COC(=O)c1ccccc1NC(=O)CSc1ncccn1 — higher, > 45.5 µg/mL
- CC1Cc2ccccc2N1C(=O)/C=C/c1cccc(F)c1 (stereo not given) — 1.6-fold higher, 6.2 µg/mL (≈ 22 µM)
- Cn1c(=O)c2c(nc(SCc3ccccc3F)n2C)n(C)c1=O — 1.6-fold higher, 6.2 µg/mL (≈ 18.5 µM)
- COc1ccc(NC(=O)C2CC(c3ccccc3Cl)=NO2)cc1 (stereo not given) — 9.9-fold higher, 37.6 µg/mL (≈ 114 µM)
- CCc1cccc(NC(=O)C(NC(=O)C2CCCCC2)C(C)C)c1 (stereo not given) — 6.3-fold lower, 0.6 µg/mL (≈ 1.82 µM)
- O=C(Cn1cc([N+](=O)[O-])ccc1=O)NCc1ccc(Cl)cc1Cl — 2-fold lower, 1.9 µg/mL (≈ 5.33 µM)
- COc1ccccc1C(CNc1ncccc1[N+](=O)[O-])N(C)C (stereo not given) — higher, > 47.5 µg/mL
- c1ccc(-c2nc3nc4ccccc4nc3n2CC2CCCO2)cc1 (stereo not given) — higher, > 49.6 µg/mL
- COc1ccc(CCNC(=O)C2CC(=O)N(c3ccc(C)cc3)C2)cc1 (stereo not given) — 1.5-fold lower, 2.5 µg/mL (≈ 7.09 µM)
- O=C(CSc1ccsc1[N+](=O)[O-])NCc1ccccc1 — 2.4-fold higher, 9 µg/mL (≈ 29.2 µM)
- CCNC(=S)N1CCn2cccc2C1c1cccnc1 (stereo not given) — 11-fold higher, 41 µg/mL (≈ 143 µM)
- COc1ccc(CNC(=O)COC(=O)c2sccc2C)cc1OC — 3.3-fold higher, 12.4 µg/mL (≈ 35.5 µM)
- CC(C)(C)c1ccc(C(=O)NCCCNC(=O)c2cccnc2)cc1 — 13-fold higher, 49.2 µg/mL (≈ 145 µM)
- Cc1cc(C)cc(NC(=O)N(C)Cc2ccccc2)c1 — 1.9-fold lower, 2 µg/mL (≈ 7.45 µM)
- Cc1c(C)c2ccc(OCC(=O)N3CCOCC3)c(C)c2oc1=O — higher, > 49.7 µg/mL
- CCOc1ccccc1C(=O)NCC(=O)O — higher, > 33.5 µg/mL
- O=C(CCC(=O)c1cccs1)NCc1ccccc1Cl — 12-fold higher, 45.4 µg/mL (≈ 147 µM)
- O=C(Nc1ccccc1)/C(=C\c1ccco1)NC(=O)c1ccco1 — higher, > 48.3 µg/mL
